From patent US11192893B2, “Pyrazoloquinazolinone antitumor agents” (The Rockefeller University, priority 2017, dated 2021)

Test system: Hedgehog pathway activity
Assay: Shh-Light luciferase reporter assay of Hedgehog pathway activity (Shh-Light2 cells, SAG-stimulated)
Assay type: cell-based
Settings: for activity at 2 µM: 2 μM compound, read-out: SHH-light % residual @ 2 μM; for activity at 2 µM / activity at 20 µM: SAG 500 nM; for activity at 20 µM: 20 μM compound, read-out: SHH-light % residual @ 20 μM
Procedure: To examine the inhibition of dynein 2 in cell-based assays, an established luciferase reporter-based cellular assay of Hedgehog pathway activity was employed [Taipale et al., Nature. 2000; 406(6799): 1005-9]. Signaling in this pathway depends on the function of dynein 2. In this setting, expression of luciferase driven by Hedgehog pathway activity was inhibited by compound 5 with an IC50 value of 0.9±0.5 μM. […] The potencies of these compounds in this cell-based assay match the rank-order of dynein 2 inhibition in vitro. In these assays, Hedgehog pathway activity was stimulated using the Synthetic Agonist of Smoothened (SAG). This compound competes with many Hedgehog pathway inhibitors for binding to Smoothened, a key node in the signaling pathway.
SHH-Light Assay (Steinman et al. eLife 2017; 6:e25174.)
NIH-3T3 cells stably expressing a luciferase reporter downstream of a Gli binding site (Shh-Light2 cells, RRID: CVCL_2721) were maintained in DMEM with 10% bovine calf serum (BCS). Cells were seeded at a density of 30,000 cells/well in 96-well tissue culture-treated plates (Corning, cat #353072) in 100 μL in DMEM+10% BCS, and incubated for 48 hr (Taipale et al., 2000). Wells were washed briefly with PBS. Next […] of low serum media (DMEM+0.5% BCS) containing smoothened agonist (SAG, 500 nM), and either solvent control (0.2% DMSO) or test compound (serial three-fold dilutions of each inhibitor starting from 20 μM) were added to the wells. After 28-32 hr of inhibitor treatment, cells were washed with 50 μL PBS and lysed for >30 min in 30 μL Passive Lysis Buffer (Promega Dual Luciferase kit, cat E1910). 5 uL of each lysate was transferred to white, solid-bottom 96-well plates (Greiner, cat #655075), followed by rapid addition (within 30 s) of 30 μL of Luciferase Assay Reagent using a multichannel pipette. Luminescence for each condition was read using a Synergy Neo plate reader (5 s integration time per well). Cell line identity was confirmed by measurement of the degree of response to Hedgehog pathway stimulation by the synthetic agonist SAG and using previously published values from our groups and others as references (Firestone et al., 2012; Hyman et al., 2009).

IC50 (Table 2, SAG 500 nM, 28-32 hr treatment, read-out: Shh-light IC50) [nM]	SMILES	activity at 2 µM [%]	activity at 20 µM [%]
–	N#Cc1c(COc2ccc(Cl)cc2)nn2c(=O)c3ccccc3[nH]c12 [Example 42, 2-[(4-Chlorophenoxy)methyl]-9-oxo-4H-pyrazolo[5,1-b]quinazoline-3-carbonitrile]	105	4.5
–	NC(=O)c1c(CCC(Cl)(Cl)Cl)nn2c(=O)c3ccccc3[nH]c12 [Example 43, 9-Oxo-2-(3,3,3-trichloropropyl)-4,9-dihydropyrazolo[5,1-b]quinazoline-3-carboxamide]	65	15.4
–	N#Cc1c(CCC(Cl)(Cl)Cl)nn2c(=O)c3ccccc3[nH]c12 [Example 44, 9-Oxo-2-(3,3,3-trichloropropyl)-4H-pyrazolo[5,1-b]quinazoline-3-carbonitrile]	45.8	3.4
–	NC(=O)c1c(CC2CCCCC2)nn2c(=O)c3ccccc3[nH]c12 [Example 45, 2-(Cyclohexylmethyl)-9-oxo-4H-pyrazolo[5,1-b]quinazoline-3-carboxamide]	82.4	4
–	N#Cc1c(CC2CCCCC2)nn2c(=O)c3ccccc3[nH]c12 [Example 46, 2-(Cyclohexylmethyl)-9-oxo-4H-pyrazolo[5,1-b]quinazoline-3-carbonitrile]	67.1	5
–	NC(=O)c1c(CCOc2ccc(Cl)cc2)nn2c(=O)c3ccccc3[nH]c12 [Example 47, 2-[2-(4-Chlorophenoxy)ethyl]-9-oxo-4H-pyrazolo[5,1-b]quinazoline-3-carboxamide]	54.7	11
–	N#Cc1c(CCOc2ccc(Cl)cc2)nn2c(=O)c3ccccc3[nH]c12 [Example 48, 2-[2-(4-Chlorophenoxy)ethyl]-9-oxo-4H-pyrazolo[5,1-b]quinazoline-3-carbonitrile]	75.5	10.9
–	NC(=O)c1c(-c2ccc(Cl)cc2Cl)nn2c(=O)c3c(OCc4ccccc4)cccc3[nH]c12 [Example 49, 8-Benzyloxy-2-(2,4-dichlorophenyl)-9-oxo-4H-pyrazolo[5,1-b]quinazoline-3-carboxamide]	78.3	10.8
–	N#Cc1c(-c2ccc(Cl)cc2Cl)nn2c(=O)c3c(OCc4ccccc4)cccc3[nH]c12 [Example 50, 8-Benzyloxy-2-(2,4-dichlorophenyl)-9-oxo-4H-pyrazolo[5,1-b]quinazoline-3-carbonitrile]	75.8	–
–	NC(=O)c1c(C2CCC(F)(F)CC2)nn2c(=O)c3ccccc3[nH]c12 [Example 51, 2-(4,4-Difluorocyclohexyl)-9-oxo-4H-pyrazolo[5,1-b]quinazoline-3-carboxamide]	92.4	103
–	N#Cc1c(C2CCC(F)(F)CC2)nn2c(=O)c3ccccc3[nH]c12 [Example 52, 2-(4,4-Difluorocyclohexyl)-9-oxo-4H-pyrazolo[5,1-b]quinazoline-3-carbonitrile]	110	76.9
–	NC(=O)c1c(CC2CC2)nn2c(=O)c3ccccc3[nH]c12 [Example 53, 2-(Cyclopropylmethyl)-9-oxo-4H-pyrazolo[5,1-b]quinazoline-3-carboxamide]	75.2	123
–	N#Cc1c(CC2CC2)nn2c(=O)c3ccccc3[nH]c12 [Example 54, 2-(Cyclopropylmethyl)-9-oxo-4H-pyrazolo[5,1-b]quinazoline-3-carbonitrile]	81.7	–
–	NC(=O)c1c(-c2ccc(Cl)cc2Cl)nn2c(=O)c3cc(OCc4ccccc4)ccc3[nH]c12 [Example 55, 7-Benzyloxy-2-(2,4-dichlorophenyl)-9-oxo-4H-pyrazolo[5,1-b]quinazoline-3-carboxamide]	62.8	–
–	N#Cc1c(-c2ccc(Cl)cc2Cl)nn2c(=O)c3cc(OCc4ccccc4)ccc3[nH]c12 [Example 56, 7-Benzyloxy-2-(2,4-dichlorophenyl)-9-oxo-4H-pyrazolo[5,1-b]quinazoline-3-carbonitrile]	49.6	–
–	NC(=O)c1c(CCC(F)(F)F)nn2c(=O)c3ccccc3[nH]c12 [Example 57, 9-Oxo-2-(3,3,3-trifluoropropyl)-4H-pyrazolo[5,1-b]quinazoline-3-carboxamide]	67.9	–
–	N#Cc1c(CCC(F)(F)F)nn2c(=O)c3ccccc3[nH]c12 [Example 58, 9-Oxo-2-(3,3,3-trifluoropropyl)-4H-pyrazolo[5,1-b]quinazoline-3-carbonitrile]	55.5	35.1
–	N#Cc1c(C2(C(F)(F)F)CC2)nn2c(=O)c3ccccc3[nH]c12 [Example 59, 9-Oxo-2-[1-(trifluoromethyl)cyclopropyl]-4H-pyrazolo[5,1-b]quinazoline-3-carbonitrile]	89.3	45.1
–	NC(=O)c1c(CCCO)nn2c(=O)c3ccccc3[nH]c12 [Example 60, 2-(3-Hydroxypropyl)-9-oxo-4H-pyrazolo[5,1-b]quinazoline-3-carboxamide]	78.1	99
–	O=C(O)c1c(-c2ccc(Cl)cc2Cl)nn2c1[nH]c(=O)c1ccccc12 [Example 61, 2-(2,4-Dichlorophenyl)-5-oxo-4H-pyrazolo[1,5-a]quinazoline-3-carboxylic acid]	–	66.7
–	NC(=O)c1c(-c2ccc(Cl)cc2Cl)nn2c1[nH]c(=O)c1ccccc12 [Example 62, 2-(2,4-Dichlorophenyl)-5-oxo-4H-pyrazolo[1,5-a]quinazoline-3-carboxamide]	–	42.1
–	COc1ccc2c(c1)c(=O)[nH]c1c(C#N)c(C3(c4ccc(Cl)cc4)CC3)nn12 [Example 64, 2-[1-(4-Chlorophenyl)cyclopropyl]-7-methoxy-5-oxo-4H-pyrazolo[1,5-a]quinazoline-3-carbonitrile]	91.6	90.4
–	COc1ccc2c(c1)c(=O)[nH]c1c(C#N)c(-c3ccc(Cl)cc3Cl)nn12 [Example 65, 2-(2,4-Dichlorophenyl)-7-methoxy-5-oxo-4H-pyrazolo[1,5-a]quinazoline-3-carbonitrile]	76.9	-1
1500	N#Cc1ccc2c(c1)c(=O)[nH]c1c(C#N)c(C3(c4ccc(Cl)cc4)CC3)nn12 [Example 66, 2-[1-(4-Chlorophenyl)cyclopropyl]-5-oxo-4H-pyrazolo[1,5-a]quinazoline-3,7-dicarbonitrile]	39.6	-3.8
–	COC(=O)c1c(-c2ccc(Cl)cc2Cl)nn2c(=O)c3ccccc3[nH]c12 [Example 67, Methyl 2-(2,4-dichlorophenyl)-9-oxo-4H-pyrazolo[5,1-b]quinazoline-3-carboxylate]	–	80.3
–	CC(C)OC(=O)c1c(-c2ccc(Cl)cc2Cl)nn2c(=O)c3ccccc3[nH]c12 [Example 68, Isopropyl 2-(2,4-dichlorophenyl)-9-oxo-4H-pyrazolo[5,1-b]quinazoline-3-carboxylate]	90.5	110
–	O=c1c2ccc(Cl)cc2[nH]c2cc(-c3ccc(Cl)cc3Cl)nn12 [Example 69, 6-Chloro-2-(2,4-dichlorophenyl)-4H-pyrazolo[5,1-b]quinazolin-9-one]	75	65.4
–	O=c1c2ccccc2[nH]c2cc(-c3ccc(Cl)cc3Cl)nn12 [Example 70, 2-(2,4-Dichlorophenyl)-4H-pyrazolo[5,1-b]quinazolin-9-one]	109	113
